# Measured values from patent publication US20030170731A1, “Diagnosis and treatment of non-ulcer dyspepsia based on hypothalamic-pituitary-adrenal axis abnormallity” (priority 2000, published 2003).
# Tested on: CRH receptors
# Test: CRH/ACTH test: plasma ACTH after intravenous ovine CRH, immunoradiometric assay
# Format: in vivo, human
# Conditions: ovine CRH 100 μg intravenously
# From the text: A total of ten patients with NUD were recruited from the Gastroenterology Clinic at St. James's Hospital, Dublin. Patients consisted of six men and four woman between the ages of twenty eight and forty five. They were matched for age and sex with ten healthy volunteers. To be included in the study patients had at least four of the following symptoms for at least three months: early satiety, upper abdominal pain, post prandial bloating, excessive flatulence, borborygmus, and nausea and/or vomiting. They all had normal results on physical examination. Endoscopic examination, twenty-four hour ambulatory pH monitoring, abdominal ultrasound were all negative. Five patients with H. pylori infestation were tested both before and after H. pylori eradication. The other five patients had no evidence of H. pylori infection. None of the patients had evidence of a formal psychiatric illness. Also none of the patients fulfilled the criteria for IBS.
# Patients who were H. pylori positive were re-tested six months after commencing eradication therapy. In all cases endocrine tests were commenced at 1400 h. The test procedure was as follows. […]
# Plasma ACTH was measured using a two site unextracted immunoradiometric assay with a commercially available kit supplied by the Nichols Institute (San Juan Capistrano, Calif.). […]
substance,measurement,setting,value
"ovine CRH: ovine variant of corticotropin releasing hormone, given intravenously as a challenge agent",CRH/ACTH enhancement following H. pylori eradication therapy,H. pylori positive NUD patients re-tested six months after commencing eradication therapy,persists
same,plasma ACTH response following CRH stimulation,"NUD patients with and without H. pylori infection, relative to healthy volunteers, blood at 15-120 min",vastly enhanced
